Laboratory results published in patent US8192962B2, “Processes for detecting toxic substances” (Daikin Industries, Ltd., priority 2001, dated 2012).

System: Metabolism protein genes
Experiment: DNA chip mRNA expression in yeast, metabolism protein genes (Table 7)
Format: cell-based, Saccharomyces cerevisiae S288C
How it was run: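 In this screen, yeast in logarithmic growth are challenged for two hours with a toxic substance at a non-lethal inhibitory concentration. Their mRNA, converted to Cy3- or Cy5-labeled cDNA, hybridizes at 65° C. to a chip spanning every yeast gene, and expression is expressed as a ratio to untreated cells.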

CCCCCCCCCCCCOS(=O)(=O)[O-].[Na+] [(18), sodium lauryl sulfate]
2.3: level of expressed mRNA in the presence/in the absence of chemical substance (yeast gene YDR050C) | level of expressed mRNA in the presence/in the absence of chemical substance (yeast gene YDR073W) | level of expressed mRNA in the presence/in the absence of chemical substance (yeast gene YDR178W) | The level of expressed mRNA in the presence of chemical substance/The level of expressed mRNA in the absence of chemical substance (yeast gene YER053C)
1.6: The level of expressed mRNA in the presence of chemical substance/The level of expressed mRNA in the absence of chemical substance (yeast gene YCR098C) | The level of expressed mRNA in the presence of chemical substance/The level of expressed mRNA in the absence of chemical substance (yeast gene YDR019C) | The level of expressed mRNA in the presence of chemical substance/The level of expressed mRNA in the absence of chemical substance (yeast gene YFR047C) | The level of expressed mRNA in the presence of chemical substance/The level of expressed mRNA in the absence of chemical substance (yeast gene YHR176W) | The level of expressed mRNA in the presence of chemical substance/The level of expressed mRNA in the absence of chemical substance (yeast gene YJL099W)
2.1: level of expressed mRNA in the presence/in the absence of chemical substance (yeast gene YJL167W)
3.1: The level of expressed mRNA in the presence of chemical substance/The level of expressed mRNA in the absence of chemical substance (yeast gene YJL155C)
1.3: level of expressed mRNA in the presence/in the absence of chemical substance (yeast gene YBR003W) | The level of expressed mRNA in the presence of chemical substance/The level of expressed mRNA in the absence of chemical substance (yeast gene YFL057C) | level of expressed mRNA in the presence/in the absence of chemical substance (yeast gene YGR288W) | The level of expressed mRNA in the presence of chemical substance/The level of expressed mRNA in the absence of chemical substance (yeast gene YHR137W) | The level of expressed mRNA in the presence of chemical substance/The level of expressed mRNA in the absence of chemical substance (yeast gene YIR036C)
0.3: The level of expressed mRNA in the presence of chemical substance/The level of expressed mRNA in the absence of chemical substance (yeast gene YCL064C)
3.3: The level of expressed mRNA in the presence of chemical substance/The level of expressed mRNA in the absence of chemical substance (yeast gene YBR256C)
9.1: level of expressed mRNA in the presence/in the absence of chemical substance (yeast gene YGL205W)
1.8: level of expressed mRNA in the presence/in the absence of chemical substance (yeast gene YDR345C) | The level of expressed mRNA in the presence of chemical substance/The level of expressed mRNA in the absence of chemical substance (yeast gene YDR497C) | The level of expressed mRNA in the presence of chemical substance/The level of expressed mRNA in the absence of chemical substance (yeast gene YIL045W) | The level of expressed mRNA in the presence of chemical substance/The level of expressed mRNA in the absence of chemical substance (yeast gene YJL172W)
2.0: The level of expressed mRNA in the presence of chemical substance/The level of expressed mRNA in the absence of chemical substance (yeast gene YGR037C) | The level of expressed mRNA in the presence of chemical substance/The level of expressed mRNA in the absence of chemical substance (yeast gene YGR194C) | The level of expressed mRNA in the presence of chemical substance/The level of expressed mRNA in the absence of chemical substance (yeast gene YIL107C) | level of expressed mRNA in the presence/in the absence of chemical substance (yeast gene YJL216C)
0.7: level of expressed mRNA in the presence/in the absence of chemical substance (yeast gene YCR034W) | level of expressed mRNA in the presence/in the absence of chemical substance (yeast gene YEL063C) | The level of expressed mRNA in the presence of chemical substance/The level of expressed mRNA in the absence of chemical substance (yeast gene YGL022W) | The level of expressed mRNA in the presence of chemical substance/The level of expressed mRNA in the absence of chemical substance (yeast gene YGR055W) | level of expressed mRNA in the presence/in the absence of chemical substance (yeast gene YGR204W)
1.1: level of expressed mRNA in the presence/in the absence of chemical substance (yeast gene YBR011C) | level of expressed mRNA in the presence/in the absence of chemical substance (yeast gene YDR408C) | The level of expressed mRNA in the presence of chemical substance/The level of expressed mRNA in the absence of chemical substance (yeast gene YFL031W) | The level of expressed mRNA in the presence of chemical substance/The level of expressed mRNA in the absence of chemical substance (yeast gene YFL056C) | level of expressed mRNA in the presence/in the absence of chemical substance (yeast gene YGL012W)
1.9: The level of expressed mRNA in the presence of chemical substance/The level of expressed mRNA in the absence of chemical substance (yeast gene YJL031C)
0.8: The level of expressed mRNA in the presence of chemical substance/The level of expressed mRNA in the absence of chemical substance (yeast gene YAL012W) | The level of expressed mRNA in the presence of chemical substance/The level of expressed mRNA in the absence of chemical substance (yeast gene YBR029C) | The level of expressed mRNA in the presence of chemical substance/The level of expressed mRNA in the absence of chemical substance (yeast gene YCL009C) | The level of expressed mRNA in the presence of chemical substance/The level of expressed mRNA in the absence of chemical substance (yeast gene YCR048W) | The level of expressed mRNA in the presence of chemical substance/The level of expressed mRNA in the absence of chemical substance (yeast gene YDR380W) | level of expressed mRNA in the presence/in the absence of chemical substance (yeast gene YDR400W) | The level of expressed mRNA in the presence of chemical substance/The level of expressed mRNA in the absence of chemical substance (yeast gene YFL030W) | level of expressed mRNA in the presence/in the absence of chemical substance (yeast gene YGR191W) | The level of expressed mRNA in the presence of chemical substance/The level of expressed mRNA in the absence of chemical substance (yeast gene YGR256W) | The level of expressed mRNA in the presence of chemical substance/The level of expressed mRNA in the absence of chemical substance (yeast gene YIL167W) | level of expressed mRNA in the presence/in the absence of chemical substance (yeast gene YJR077C) | The level of expressed mRNA in the presence of chemical substance/The level of expressed mRNA in the absence of chemical substance (yeast gene YJR137C) | level of expressed mRNA in the presence/in the absence of chemical substance (yeast gene YJR143C)
4.0: The level of expressed mRNA in the presence of chemical substance/The level of expressed mRNA in the absence of chemical substance (yeast gene YDL174C)
1.0: The level of expressed mRNA in the presence of chemical substance/The level of expressed mRNA in the absence of chemical substance (yeast gene YAL038W) | level of expressed mRNA in the presence/in the absence of chemical substance (yeast gene YDR123C) | level of expressed mRNA in the presence/in the absence of chemical substance (yeast gene YER120W) | level of expressed mRNA in the presence/in the absence of chemical substance (yeast gene YFL011W) | level of expressed mRNA in the presence/in the absence of chemical substance (yeast gene YGR096W) | level of expressed mRNA in the presence/in the absence of chemical substance (yeast gene YHR123W) | The level of expressed mRNA in the presence of chemical substance/The level of expressed mRNA in the absence of chemical substance (yeast gene YIL154C) | The level of expressed mRNA in the presence of chemical substance/The level of expressed mRNA in the absence of chemical substance (yeast gene YIR034C) | level of expressed mRNA in the presence/in the absence of chemical substance (yeast gene YJL121C)
1.2: The level of expressed mRNA in the presence of chemical substance/The level of expressed mRNA in the absence of chemical substance (yeast gene YDR516C) | The level of expressed mRNA in the presence of chemical substance/The level of expressed mRNA in the absence of chemical substance (yeast gene YER096W) | level of expressed mRNA in the presence/in the absence of chemical substance (yeast gene YGL115W) | The level of expressed mRNA in the presence of chemical substance/The level of expressed mRNA in the absence of chemical substance (yeast gene YGL248W) | The level of expressed mRNA in the presence of chemical substance/The level of expressed mRNA in the absence of chemical substance (yeast gene YHR111W) | The level of expressed mRNA in the presence of chemical substance/The level of expressed mRNA in the absence of chemical substance (yeast gene YHR174W) | level of expressed mRNA in the presence/in the absence of chemical substance (yeast gene YHR210C) | The level of expressed mRNA in the presence of chemical substance/The level of expressed mRNA in the absence of chemical substance (yeast gene YJL219W)
1.5: level of expressed mRNA in the presence/in the absence of chemical substance (yeast gene YCR010C) | level of expressed mRNA in the presence/in the absence of chemical substance (yeast gene YDR284C) | The level of expressed mRNA in the presence of chemical substance/The level of expressed mRNA in the absence of chemical substance (yeast gene YGL209W) | The level of expressed mRNA in the presence of chemical substance/The level of expressed mRNA in the absence of chemical substance (yeast gene YGR282C) | The level of expressed mRNA in the presence of chemical substance/The level of expressed mRNA in the absence of chemical substance (yeast gene YJL068C)
3.2: The level of expressed mRNA in the presence of chemical substance/The level of expressed mRNA in the absence of chemical substance (yeast gene YER026C)
2.4: The level of expressed mRNA in the presence of chemical substance/The level of expressed mRNA in the absence of chemical substance (yeast gene YBR183W)
2.6: level of expressed mRNA in the presence/in the absence of chemical substance (yeast gene YER015W)
0.9: level of expressed mRNA in the presence/in the absence of chemical substance (yeast gene YBR020W) | The level of expressed mRNA in the presence of chemical substance/The level of expressed mRNA in the absence of chemical substance (yeast gene YBR023C) | The level of expressed mRNA in the presence of chemical substance/The level of expressed mRNA in the absence of chemical substance (yeast gene YBR222C) | The level of expressed mRNA in the presence of chemical substance/The level of expressed mRNA in the absence of chemical substance (yeast gene YDR502C) | The level of expressed mRNA in the presence of chemical substance/The level of expressed mRNA in the absence of chemical substance (yeast gene YER069W) | The level of expressed mRNA in the presence of chemical substance/The level of expressed mRNA in the absence of chemical substance (yeast gene YER178W) | The level of expressed mRNA in the presence of chemical substance/The level of expressed mRNA in the absence of chemical substance (yeast gene YGL126W) | level of expressed mRNA in the presence/in the absence of chemical substance (yeast gene YIL006W) | The level of expressed mRNA in the presence of chemical substance/The level of expressed mRNA in the absence of chemical substance (yeast gene YJL088W)
0.6: level of expressed mRNA in the presence/in the absence of chemical substance (yeast gene YHR025W)
1.4: level of expressed mRNA in the presence/in the absence of chemical substance (yeast gene YDR483W) | The level of expressed mRNA in the presence of chemical substance/The level of expressed mRNA in the absence of chemical substance (yeast gene YIL155C) | The level of expressed mRNA in the presence of chemical substance/The level of expressed mRNA in the absence of chemical substance (yeast gene YJR155W)
1.7: level of expressed mRNA in the presence/in the absence of chemical substance (yeast gene YDR277C) | level of expressed mRNA in the presence/in the absence of chemical substance (yeast gene YER081W) | The level of expressed mRNA in the presence of chemical substance/The level of expressed mRNA in the absence of chemical substance (yeast gene YJR148W)
8.8: The level of expressed mRNA in the presence of chemical substance/The level of expressed mRNA in the absence of chemical substance (yeast gene YFL014W)
